Reference: patent US20240109881A1, “Heteroaryl Compounds as Ligand Directed Degraders of IRAK4” (Bristol-Myers Squibb Company, priority 2022, published 2024)

Target: T1, IRAK4 (Homo sapiens, UniProt Q9NWZ3)
T1 construct: endogenous in cells; host or cells: THP-1 cells
T1 sequence (Q9NWZ3 1-460): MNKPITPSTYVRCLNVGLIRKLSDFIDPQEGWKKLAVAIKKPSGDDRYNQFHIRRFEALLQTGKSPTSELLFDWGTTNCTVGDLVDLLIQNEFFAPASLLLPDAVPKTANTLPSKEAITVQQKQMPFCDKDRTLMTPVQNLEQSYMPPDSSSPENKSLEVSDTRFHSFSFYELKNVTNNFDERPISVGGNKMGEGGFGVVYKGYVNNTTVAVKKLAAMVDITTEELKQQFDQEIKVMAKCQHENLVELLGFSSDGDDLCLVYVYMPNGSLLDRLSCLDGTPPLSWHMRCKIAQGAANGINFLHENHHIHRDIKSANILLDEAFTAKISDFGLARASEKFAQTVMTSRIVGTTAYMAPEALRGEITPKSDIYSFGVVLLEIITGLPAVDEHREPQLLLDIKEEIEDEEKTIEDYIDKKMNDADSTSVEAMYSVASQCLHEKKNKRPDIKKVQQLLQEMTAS
Assay: LVL THP1 HTRF (THP1 Homogeneous Time Resolved Fluorescence)
Format: cell-based
Conditions: THP1 cells, 18 h incubation with compound; for DC50: read-out: LVL THP1 HTRF EC50
How it was run: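 IRAK4 HTRF read-out (665/615 nm ratio, anti-IRAK4 d2 acceptor and K donor, 18 h dark incubation at room temperature) on lysates of THP-1 cells. Cells were treated 18 h at 37° C. with 20 nL compound in DMSO, in colorless RPMI with 10% FBS, with a duplicate CTG plate.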

| LVL THP1 HTRF YMIN | DC50 | SMILES |
| --- | --- | --- |
| −5.4% | 0.0003 µM | C[C@H](C#N)Nc1cc(-n2ncc3cc(C#N)cnc32)ncc1-n1cc([C@H]2CC[C@H](CCN3CCN(c4ccc(N5CCC(=O)NC5=O)c(F)c4)[C@H](C)C3)CC2)nn1 [P-436] |
| 0.0% | 0.0004 µM | C[C@H](C#N)Nc1cc(-n2ncc3cc(C#N)cnc32)ncc1-n1cc([C@H]2CC[C@H](CCN3CCN(c4ccc(N5CCC(=O)NC5=O)c(Cl)c4)[C@H](C)C3)CC2)nn1 [P-437] |
| 2.2% | 0.0034 µM | C[C@H](C#N)Nc1cc(-n2ncc3cc(C#N)cnc32)ncc1-n1cc([C@H]2CC[C@H](CCN3CCN(c4ncc(N5CCC(=O)NC5=O)cn4)[C@H](C)C3)CC2)nn1 [P-438] |
| 11.2% | 0.0924 µM | C[C@H](C#N)Nc1cc(-n2ncc3cc(C#N)cnc32)ncc1-n1cc([C@H]2CC[C@H](CCN3CCC4(C3)CN(c3ccc(N5CCC(=O)NC5=O)cc3)C4)CC2)nn1 [P-439] |
| 2.9% | 0.0537 µM | C[C@H](C#N)Nc1cc(-n2ncc3cc(C#N)cnc32)ncc1-n1cc([C@H]2CC[C@H](CCN3CCN(c4cnc(N5CCC(=O)NC5=O)cn4)[C@H](C)C3)CC2)nn1 [P-440] |
| −0.1% | 0.0026 µM | CC[C@@H]1CN(CC[C@H]2CC[C@H](c3cn(-c4cnc(-n5ncc6cc(C#N)cnc65)cc4N[C@H](C)C#N)nn3)CC2)CCN1c1ccc(N2CCC(=O)NC2=O)cc1 [P-441] |
| −2.0% | 0.0044 µM | CC[C@H]1CN(CC[C@H]2CC[C@H](c3cn(-c4cnc(-n5ncc6cc(C#N)cnc65)cc4N[C@H](C)C#N)nn3)CC2)CCN1c1ccc(C2CCC(=O)NC2=O)cc1 (stereo partly drawn) [P-442] |
| −0.6% | 0.0045 µM | COc1cc(N2CCN(CC[C@H]3CC[C@H](c4cn(-c5cnc(-n6ncc7cc(C#N)cnc76)cc5N[C@H](C)C#N)nn4)CC3)CC2)ccc1N1CCC(=O)NC1=O [P-443] |
| −1.6% | 0.0052 µM | C[C@H](C#N)Nc1cc(-n2ncc3cc(C#N)cnc32)ncc1-n1cc([C@H]2CC[C@H](CCN3CC4(CC(c5ccc(N6CCC(=O)NC6=O)c(F)c5)C4)C3)CC2)nn1 [P-444] |
| 4.0% | 0.0658 µM | CC[C@H]1CN(CC[C@H]2CC[C@H](c3cn(-c4cnc(-n5ncc6cc(C#N)cnc65)cc4N[C@H](C)C#N)nn3)CC2)CCN1c1ccc(N2CCC(=O)NC2=O)cc1 [P-445] |
| −1.4% | 0.0014 µM | CC[C@@H]1CN(CC[C@H]2CC[C@H](c3cn(-c4cnc(-n5ncc6cc(C#N)c(N)nc65)cc4N[C@H](C)C#N)nn3)CC2)CCN1c1ccc(N2CCC(=O)NC2=O)cn1 [P-446] |
| 0.8% | 0.0006 µM | CC[C@@H]1CN(CC[C@H]2CC[C@H](c3cn(-c4cnc(-n5ncc6cc(C#N)c(N)nc65)cc4N[C@H](C)C#N)nn3)CC2)CCN1c1ccc(N2CCC(=O)NC2=O)cc1 [P-447] |
| 3.9% | 0.0321 µM | C[C@H](C#N)Nc1cc(-n2ncc3cc(C#N)cnc32)ncc1-n1cc([C@H]2CC[C@H](CCN3CCC4(C3)CN(c3ccc([C@@]5(C)CCC(=O)NC5=O)cc3)C4)CC2)nn1 [P-448] |
| 23.7% | 0.424 µM | C[C@H](C#N)Nc1cc(-n2ncc3cc(C#N)cnc32)ncc1-n1cc([C@H]2CC[C@H](CCN3CC4(CC(c5ccc(N6CCC(=O)NC6=O)cn5)C4)C3)CC2)nn1 [P-449] |
| 0.5% | 0.0019 µM | CC[C@@H]1CN(CC[C@H]2CC[C@H](c3cn(-c4cnc(-n5ncc6cc(C#N)cnc65)cc4N[C@H](C)C#N)nn3)CC2)CCN1c1ccc(C2CCC(=O)NC2=O)cc1 (stereo partly drawn) [P-452] |
| −5.9% | 0.0078 µM | C[C@H](C#N)Nc1cc(Nc2ncc(C#N)cc2Cl)ncc1-n1cc([C@H]2CC[C@H](CCN3CCN(c4ccc(N5CCC(=O)NC5=O)cn4)[C@H](C)C3)CC2)nn1 [P-455] |
| 15.0% | 0.128 µM | C[C@H](C#N)Nc1cc(-n2ncc3cc(C#N)cnc32)ncc1-n1cc([C@H]2CC[C@H](CCN3CC[C@@H](Oc4ccc(N5CCC(=O)NC5=O)cc4)C3)CC2)nn1 [P-458] |
| −0.5% | 0.0025 µM | C[C@H](C#N)Nc1cc(-n2ncc3cc(C#N)cnc32)ncc1-n1cc([C@H]2CC[C@H](CCN3CCN(c4ccc(N5CCC(=O)NC5=O)cc4)C[C@H]3C)CC2)nn1 [P-459] |
| −3.4% | 0.0001 µM | C[C@H](C#N)Nc1cc(-n2ncc3cc(C#N)c(N)nc32)ncc1-n1cc([C@H]2CC[C@H](CCN3CCN(c4ccc(N5CCC(=O)NC5=O)cn4)[C@H](C)C3)CC2)nn1 [P-463] |
| 18.9% | 0.293 µM | C[C@H](C#N)Nc1cc(-n2ncc3cc(C#N)cnc32)ncc1-n1cc([C@H]2CC[C@H](CCN3CC[C@H](Oc4ccc(N5CCC(=O)NC5=O)cc4)C3)CC2)nn1 [P-465] |
| 2.3% | 0.0172 µM | C[C@H](C#N)Nc1cc(-n2ncc3cc(C#N)cnc32)ncc1-n1cc([C@H]2CC[C@H](CCN3CCN(c4ccc(N5CCC(=O)NC5=O)cc4)C[C@@H]3C)CC2)nn1 [P-468] |
| 15.5% | 1 µM | C[C@H](C#N)Nc1cc(Nc2ncc(C#N)cc2Cl)ncc1-n1cc([C@H]2CC[C@H](CCN3CC4(CC(c5ccc(N6CCC(=O)NC6=O)cn5)C4)C3)CC2)nn1 [P-473] |
| 6.4% | 0.047 µM | C[C@H](C#N)Nc1cc(-n2ncc3cc(C#N)cnc32)ncc1C(=O)N[C@H]1CC[C@H](CCN2CC[C@H]3[C@@H]2CCN3c2ccc(N3CCC(=O)NC3=O)c(Cl)c2)CC1 [P-475] |
| 0.9% | 0.002 µM | C[C@H](C#N)Nc1cc(-n2ncc3cc(C#N)cnc32)ncc1-n1cc([C@H]2CC[C@H](CCN3CCC(c4ccc5c(N6CCC(=O)NC6=O)nn(C)c5c4)CC3)CC2)nn1 [P-476] |
| 18.6% | 0.263 µM | C[C@H](C#N)Nc1cc(-n2ncc3cc(C#N)cnc32)ncc1-n1cc([C@H]2CC[C@H](CCN3CC(c4ccc(N5CCC(=O)NC5=O)cc4)C3)CC2)nn1 [P-477] |
| 9.4% | 0.038 µM | C[C@H](C#N)Nc1cc(-n2ncc3cc(C#N)cnc32)ncc1C(=O)N[C@H]1CC[C@H](CCN2CC[C@H]3[C@@H]2CCN3c2ccc(N3CCC(=O)NC3=O)c(F)c2)CC1 [P-481] |
| 3.4% | 0.011 µM | C[C@H](C#N)Nc1cc(-n2ncc3cc(C#N)cnc32)ncc1-n1cc([C@H]2CC[C@H](CCN3C[C@@H](C)N(c4ccc(N5CCC(=O)NC5=O)cc4)C[C@@H]3C)CC2)nn1 [P-483] |
| 52.3% | 1 µM | C[C@H](C#N)Nc1cc(-n2ncc3cc(C#N)cnc32)ncc1C(=O)N[C@H]1CC[C@H](CCN2CC[C@H]3[C@@H]2CCN3c2ccc(N3CCC(=O)NC3=O)c(F)c2)CC1 [P-484] |
| 24.9% | 0.2 µM | C[C@H](C#N)Nc1cc(N2CCc3cc(C#N)cnc32)ncc1-n1cc([C@H]2CC[C@H](CCN3CCN(c4ccc(N5CCC(=O)NC5=O)cc4)CC3)CC2)nn1 [P-486] |

| SMILES | LVL THP1 HTRF YMIN | DC50 |
| --- | --- | --- |
| C[C@H](C#N)Nc1cc(-n2ncc3cc(C#N)cnc32)ncc1-n1cc([C@H]2CC[C@H](CCN3CCC4(c5ccc(N6CCC(=O)NC6=O)cc5)CC4C3)CC2)nn1 (stereo partly drawn) [P-471] | 7.7% | 0.0879 µM |
